± gives the expanded uncertainty stated by the source.
Settings: Liquid, Closed cell (Static) method

vapor or sublimation pressure (303.15 K) [kPa]	vapor or sublimation pressure (308.15 K) [kPa]	vapor or sublimation pressure (313.15 K) [kPa]	vapor or sublimation pressure (318.15 K) [kPa]	Structure (SMILES)
7.933 ± 0.28	10.72 ± 0.29			CC(C)O [propan-2-ol]
4.186 ± 0.27	5.493 ± 0.27	7.346 ± 0.27	9.493 ± 0.27	O [water]
10.43 ± 0.29		17.84 ± 0.32		CCO [ethanol]

Source: the NIST ThermoML archive (doi:10.1021/je100624p)
